The results in this text go back to US9187472B2 (AbbVie Inc., priority 2012, dated 2015).

pIC50: −log10 of the molar value.

Experiment [1] concerns the target NAMPT (Homo sapiens, UniProt P43490). Kind of experiment: TR-FRET Binding Assay of NAMPT with PRPP. The conditions noted are these: with 200 μM PRPP and 2.5 mM ATP; 2 nM NAMPT, 2 nM probe, 16 hours equilibration. As to the method:
Time-Resolved Fluorescence Resonance Energy Transfer (TR-FRET) Binding Assay of NAMPT with PRPP
Compound handling and data processing were identical to the assay in the absence of substrates (above). Final concentrations were 1× assay buffer, 2% DMSO, 2 nM NAMPT, 2 nM probe, 1 nM Tb-anti-His antibody (Invitrogen # PV5895), 200 μM PRPP and 2.5 mM ATP. Reactions were equilibrated for 16 hours prior to measurement to allow for potential enzymatic modification of test compounds.
(In TR-FRET formats the signal depends on donor and acceptor labels being close together.)

Experiment [2] has as its system PC3 cells. Description: NAMPT Cell Proliferation Assay. Type of experiment: cell-based. The following applies: Homo sapiens, PC-3, 120 h, 5 days incubation, cell viability by Cell Titer Glo. The method, boiled down:
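Following overnight attachment in RPMI with 10% heat-inactivated FBS, PC3 cells at 500 per well receive compounds spanning 10 μM down to 1×10^−5 μM. Growth is assessed by luminescent viability read after 5 days.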

For experiment [3], the target named is NAMPT (human, recombinant, C-terminally His-tagged) (Homo sapiens, UniProt P43490). Description: Time-Resolved Fluorescence Resonance Energy Transfer (TR-FRET) Binding Assay of NAMPT. The following applies: without substrates; 6.8 nM NAMPT, 200 nM probe, 3 hours equilibration. The procedure: Determination of the utility of compounds having Formula (I) as binders to and inhibitors of NAMPT was performed using Time-Resolved Fluorescence Resonance Energy Transfer (TR-FRET) binding assays.
Time-Resolved Fluorescence Resonance Energy Transfer (TR-FRET) Binding Assay of NAMPT
Test compounds were serially diluted (typically 11 half log dilutions) in neat DMSO to 50× final concentrations prior to dilution with assay buffer (50 mM HEPES (NaOH), pH 7.5, 100 mM NaCl, 10 mM MgCl2, 1 mM DTT, 1% Glycerol) to 3× and 6% DMSO. Six μL were transferred to 384-well low-volume plates (Owens Corning #3673). To this, […] of a 1.5× solution containing enzyme, probe and antibody were added. Final concentrations in the 18 μL, reactions were 1× assay buffer, 2% DMSO, 6.8 nM NAMPT (human, recombinant, C-terminally His-tagged), 200 nM probe (a potent nicotinamide-competitive inhibitor conjugated to Oregon Green 488) and 1 nM Tb-anti-His antibody (Invitrogen # PV5895). Reactions were equilibrated at room temperature for 3 hours prior to reading on an Envision multi-label plate reader (Perkin Elmer; Ex=337 nm, Em=520 and 495 nm). Time-resolved FRET ratios (Em520/Em495) were normalized to controls, plotted as a function of compound concentration and fit with the four-parameter logistic equation to determine IC50s.

What is called pIC50 is the negative decadic logarithm of the IC50, by convention in mol/L.

Chain of NAMPT (human, recombinant, C-terminally His-tagged) (P43490 whole entry): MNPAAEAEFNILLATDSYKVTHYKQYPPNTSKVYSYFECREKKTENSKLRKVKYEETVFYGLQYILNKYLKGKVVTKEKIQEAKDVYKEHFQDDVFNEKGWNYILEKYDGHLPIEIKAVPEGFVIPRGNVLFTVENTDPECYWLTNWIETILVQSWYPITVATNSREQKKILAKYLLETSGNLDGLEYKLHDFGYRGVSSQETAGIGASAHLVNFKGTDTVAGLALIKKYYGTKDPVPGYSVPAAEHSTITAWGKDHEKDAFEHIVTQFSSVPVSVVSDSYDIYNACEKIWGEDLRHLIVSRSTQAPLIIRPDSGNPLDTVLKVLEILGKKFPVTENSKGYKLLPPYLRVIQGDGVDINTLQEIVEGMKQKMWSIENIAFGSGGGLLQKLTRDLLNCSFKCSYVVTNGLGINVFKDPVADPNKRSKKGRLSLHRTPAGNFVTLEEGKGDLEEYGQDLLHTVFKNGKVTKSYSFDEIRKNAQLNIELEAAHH
Chain of NAMPT (P43490 whole entry): as above

For the molecule `O=C(NCc1ccn2ccnc2c1)c1ccc(O[C@H]2CCN(C(=O)c3ccccc3)C2)cc1` [Example 353, 4-{[(3S)-1-benzoylpyrrolidin-3-yl]oxy}-N-(imidazo[1,2-a]pyridin-7-ylmethyl)benzamide], the figures for the pIC50 in experiment [1], in experiment [2] and in experiment [3] were 9.33, 5.12 and 5.50, respectively.
On the same counts, the results for `O=C(NCc1ccn2ccnc2c1)c1ccc(C2CCN(C(=O)c3cc(F)cc(F)c3)C2)cc1` (stereo not drawn) [Example 599, 4-[1-(3,5-difluorobenzoyl)pyrrolidin-3-yl]-N-(imidazo[1,2-a]pyridin-7-ylmethyl)benzamide] are 9.10, 7.28 and 6.28.
Turning to `CC(C)(C)Cn1cc(-c2ccc(C(=O)NCc3ccn4ccnc4c3)o2)cn1` [Example 825, 5-[1-(2,2-dimethylpropyl)-1H-pyrazol-4-yl]-N-(imidazo[1,2-a]pyridin-7-ylmethyl)furan-2-carboxamide], the values for the pIC50 in experiment [1], in experiment [2] and in experiment [3] were 9.27, 8.97 and 7.58, respectively.
With `O=C(NCc1ccn2ccnc2c1)c1ccc(C2CCN(C(=O)c3ccccc3OC(F)(F)F)CC2)cc1` [Example 706, N-(imidazo[1,2-a]pyridin-7-ylmethyl)-4-{1-[2-(trifluoromethoxy)benzoyl]piperidin-4-yl}benzamide], the pIC50 in experiment [1] is 9.03; in experiment [2], 8.18; in experiment [3], 7.08.
`CC[C@H](C)C(=O)N1CC[C@@H](Oc2ccc(C(=O)NCc3ccn4ccnc4c3)cc2)C1` [Example 495, N-(imidazo[1,2-a]pyridin-7-ylmethyl)-4-({(3R)-1-[(25)-2-methylbutanoyl]pyrrolidin-3-yl}oxy)benzamide]: the results for the pIC50 in experiment [1], in experiment [2] and in experiment [3] were 9.40, 6.90 and 5.83, respectively.
As to `O=C(CC1CCOC1)Nc1ccc(C(=O)NCc2ccc3ncc(Cl)n3c2)cc1` (stereo not drawn) [Example 398, N-[(3-chloroimidazo[1,2-a]pyridin-6-yl)methyl]-4-[(tetrahydrofuran-3-ylacetyl)amino]benzamide], the pIC50 in experiment [1] is 9.10; in experiment [2], 7.13; in experiment [3], 6.68.
For the molecule `O=C(NC1(c2ccc(C(=O)NCc3ccn4ccnc4c3)s2)COC1)c1ccccc1` [Example 325, 5-[3-(benzoylamino)oxetan-3-yl]-N-(imidazo[1,2-a]pyridin-7-ylmethyl)thiophene-2-carboxamide], the pIC50 in experiment [1] is 9.56; in experiment [2] it was 7.48; in experiment [3], 6.74.
As to `N#Cc1ccc(C(=O)N2CCC(c3ccc(C(=O)NCc4ccn5ccnc5c4)s3)C2)cc1` (stereo not drawn) [Example 766, 5-[1-(4-cyanobenzoyl)pyrrolidin-3-yl]-N-(imidazo[1,2-a]pyridin-7-ylmethyl)thiophene-2-carboxamide], the figures for the pIC50 in experiment [1], in experiment [2] and in experiment [3] were 9.24, 8.20 and 7.21, respectively.
For `O=C(NCc1ccn2ccnc2c1)c1ccc(C2CN(C(=O)CC3CC3)C2)cc1` [Example 548, 4-[1-(cyclopropylacetyl)azetidin-3-yl]-N-(imidazo[1,2-a]pyridin-7-ylmethyl)benzamide], the results for the pIC50 in experiment [1], in experiment [2] and in experiment [3] were 9.33, 7.13 and 6.40, respectively.
Regarding `CC(C)CCNc1ncc(C(=O)NCc2ccc3nccn3c2)s1` [Example 87, N-(imidazo[1,2-a]pyridin-6-ylmethyl)-2-[(3-methylbutyl)amino]-1,3-thiazole-5-carboxamide], the pIC50 was 8.87 in experiment [1], 5.18 in experiment [2] and 5.69 in experiment [3].
Take `O=C(Nc1ccc(C(=O)NCC2CCCCO2)cc1)Nc1ccc2ncc(Cl)n2c1` (stereo not drawn) [Example 396, 4-{[(3-chloroimidazo[1,2-a]pyridin-6-yl)carbamoyl]amino}-N-(tetrahydro-2H-pyran-2-ylmethyl)benzamide]: the pIC50 is 9.44 in experiment [1], 7.49 in experiment [2] and 7.65 in experiment [3].
Consider `O=C(NCc1ccn2ccnc2c1)c1ccc(C2CCN(C(=O)c3cccs3)C2)cc1` (stereo not drawn) [Example 488, N-(imidazo[1,2-a]pyridin-7-ylmethyl)-4-[1-(thiophen-2-ylcarbonyl)pyrrolidin-3-yl]benzamide], for which the pIC50 in experiment [1] is 9.26; in experiment [2], 7.01; in experiment [3], 6.86.
`O=C(NCc1ccn2ccnc2c1)c1ccc(C2CCN(C(=O)c3cccs3)C2)s1` (stereo not drawn) [Example 786, N-(imidazo[1,2-a]pyridin-7-ylmethyl)-5-[1-(thiophen-2-ylcarbonyl)pyrrolidin-3-yl]thiophene-2-carboxamide]: the pIC50 in experiment [1] was 9.32; in experiment [2], 8.12; in experiment [3], 7.35.
On the same counts, the results for `CC(C)CC(=O)N1CCC(c2ccc(C(=O)NCc3ccn4ccnc4c3)cc2)CC1` [Example 534, N-(imidazo[1,2-a]pyridin-7-ylmethyl)-4-[1-(3-methylbutanoyl)piperidin-4-yl]benzamide] are 9.60, 8.29 and 6.84.
For `O=C(NCc1ccn2ccnc2c1)c1ccc(-c2cnn(Cc3ccccc3)c2)o1` [Example 741, 5-(1-benzyl-1H-pyrazol-4-yl)-N-(imidazo[1,2-a]pyridin-7-ylmethyl)furan-2-carboxamide], in that order: 9.19, 7.13 and 7.17.
Consider `CC(C)CC(=O)N1CCC(c2ncc(C(=O)NCc3ccn4ccnc4c3)s2)CC1` [Example 544, N-(imidazo[1,2-a]pyridin-7-ylmethyl)-2-[1-(3-methylbutanoyl)piperidin-4-yl]-1,3-thiazole-5-carboxamide], for which the values for the pIC50 in experiment [1], in experiment [2] and in experiment [3] were 9.36, 6.19 and 6.06, respectively.
As for `O=C(NCc1ccn2ccnc2c1)Nc1ccc(C2=CCN(C(=O)C3CCCO3)CC2)cc1F` (stereo not drawn) [Example 307, 1-{2-fluoro-4-[1-(tetrahydrofuran-2-ylcarbonyl)-1,2,3,6-tetrahydropyridin-4-yl]phenyl}-3-(imidazo[1,2-a]pyridin-7-ylmethyl)urea], the pIC50 in experiment [1] was 9.77; in experiment [2] it was 7.87; in experiment [3], 7.29.
In the case of `CC(C)(O)Cn1cc(-c2ncc(C(=O)NCc3ccn4ccnc4c3)s2)cn1` [Example 204, 2-[1-(2-hydroxy-2-methylpropyl)-1H-pyrazol-4-yl]-N-(imidazo[1,2-a]pyridin-7-ylmethyl)-1,3-thiazole-5-carboxamide], the pIC50 in experiment [1] is 9.11; in experiment [2], 5.79; in experiment [3], 5.32.
For `O=C(NCc1ccn2ccnc2c1)Nc1ccc(OC2CN(C(=O)C3COCCO3)C2)cc1` (stereo not drawn) [Example 434, 1-(4-{[1-(1,4-dioxan-2-ylcarbonyl)azetidin-3-yl]oxy}phenyl)-3-(imidazo[1,2-a]pyridin-7-ylmethyl)urea], the pIC50 in experiment [1] is 9.77; in experiment [2] it was 8.25; in experiment [3], 6.99.
For `CC(C)(C)OC(=O)N1CCC(CCCCNC(=O)Nc2ccc3nccn3c2)CC1` [Example 58, tert-butyl 4-{4-[(imidazo[1,2-a]pyridin-6-ylcarbamoyl)amino]butyl}piperidine-1-carboxylate], the pIC50 in experiment [1] is 8.84; in experiment [2], 7.28; in experiment [3], 6.28.
For the molecule `CC(C)(O)C(=O)N1CCC(c2ccc(NC(=O)NCc3ccn4ccnc4c3)cc2)CC1` [Example 227, 1-{4-[1-(2-hydroxy-2-methylpropanoyl)piperidin-4-yl]phenyl}-3-(imidazo[1,2-a]pyridin-7-ylmethyl)urea], the results for the pIC50 in experiment [1], in experiment [2] and in experiment [3] were 9.56, 8.20 and 7.79, respectively.
For `COc1ccc(C(=O)N2CC(c3ccc(C(=O)NCc4ccn5ccnc5c4)cc3)C2)cc1` [Example 655, N-(imidazo[1,2-a]pyridin-7-ylmethyl)-4-[1-(4-methoxybenzoyl)azetidin-3-yl]benzamide], the pIC50 was 9.00 in experiment [1], 7.16 in experiment [2] and 6.64 in experiment [3].
In the case of `CC(=O)N1CC=C(c2ccc(C(=O)NCc3ccn4ccnc4c3)s2)CC1` [Example 241, 5-(1-acetyl-1,2,3,6-tetrahydropyridin-4-yl)-N-(imidazo[1,2-a]pyridin-7-ylmethyl)thiophene-2-carboxamide], the pIC50 is 9.77 in experiment [1], 8.07 in experiment [2] and 7.17 in experiment [3].
